According to ChEMBL document CHEMBL1149555, “Synthesis and antiproliferative activity of thiazolidine analogs for melanoma” (Bioorg Med Chem Lett, 2007):

Tests used:
[1] = Antiproliferative activity against human fibroblasts after 48 hrs by SRB assay; format: cell-based; conditions: Fibroblast
[2] = Antiproliferative activity against human WM164 cells after 48 hrs by SRB assay; format: functional, cell-based; conditions: WM164, 48 h
[3] = Antiproliferative activity against human SK-MEL-188 cells after 48 hrs by SRB assay; format: functional, cell-based; conditions: SK-MEL-188, 48 h

| SMILES | IC50 [1] [µM] | IC50 [2] [nM] | IC50 [3] [nM] |
| --- | --- | --- | --- |
| CCCCCCCCCCNC(=O)[C@@H]1CSC(c2cc(OC)c(OC)c(OC)c2)N1 (stereo partly specified) | 6.7 | 2100 | 14500 |
| CCCCCCCCCCCCNC(=O)[C@@H]1CSC(c2ccc3c(c2)OCO3)N1 (stereo partly specified) | 5.2 | 2500 | 3500 |
| CCCCCCCCCCCCCCNC(=O)[C@@H]1CSC(c2ccccc2)N1 (stereo partly specified) | 2.8 | 600 | 1900 |
| COc1cc(C2SCC3C(=O)N4C(CSC4c4cc(OC)c(OC)c(OC)c4)C(=O)N32)cc(OC)c1OC (stereo unspecified) | > 50 | > 50000 | > 50000 |
| CNC(=O)c1cc(Oc2ccc(NC(=O)Nc3ccc(Cl)c(C(F)(F)F)c3)cc2)ccn1 [SORAFENIB] | 15.1 | 4900 | 5400 |
| CCCCCCCCCCCCCCNC(=O)[C@@H]1CSC(c2ccc(OC)c(OC)c2)N1 (stereo partly specified) | 2.8 | 800 | 1500 |
| CCCCCCCCCCCCCCNC(=O)[C@H]1CSC(c2cc(OC)c(OC)c(OC)c2)N1 (stereo partly specified) | 4.1 | 1100 | 2600 |
| CCCCCCCCCCCCNC(=O)[C@@H]1CSC(c2ccc(NC(C)=O)cc2)N1 (stereo partly specified) | 3.5 | 1200 | 2400 |
| CCCCCCCCCCCCCCNC(=O)[C@@H]1CSC(c2cc(OC)c(OC)c(OC)c2)N1 (stereo partly specified) | 2.6 | 1600 | 2000 |
| CCCCCCCCCCCCCCCCCCNC(=O)[C@@H]1CSC(c2ccc(NC(C)=O)cc2)N1 (stereo partly specified) | > 60 | 11600 | 22300 |
| CCCCCCCCCCCCCCCCNC(=O)[C@H]1CSC(c2ccc(NC(C)=O)cc2)N1 (stereo partly specified) | 22.6 | 1400 | 3200 |
| CCCCCCCCCCCCCCCCNC(=O)[C@@H]1CSC(c2ccc(OC)c(OC)c2)N1 (stereo partly specified) | 2.1 | 500 | 1500 |
| CCCCCCCCCCNC(=O)[C@@H]1CSC(c2ccc3c(c2)OCO3)N1 (stereo partly specified) | 8.2 | 4500 | 6600 |
| CCCCCCCCC/C=C/CCCCCCCNC(=O)[C@@H]1CSC(c2ccc(NC(C)=O)cc2)N1 (stereo partly specified) | 18 | 1400 | 3300 |
| CCCCCCCCCCCCCCCCNC(=O)[C@@H]1CSC(c2ccc(NC(C)=O)cc2)N1 (stereo partly specified) | 19.1 | 600 | 2100 |
| CN(C)/N=N/c1[nH]cnc1C(N)=O [DACARBAZINE] | – | > 100000 | > 100000 |
| CCCCCCCCCCCCCCCCNC(=O)[C@@H]1CSC(c2ccccc2)N1 (stereo partly specified) | 2.2 | 700 | 1900 |

| SMILES | IC50 [1] [µM] | IC50 [2] [nM] | IC50 [3] [nM] |
| --- | --- | --- | --- |
| CCCCCCCCCCCCCCCCNC(=O)[C@@H]1CSC(c2ccc3c(c2)OCO3)N1 (stereo partly specified) | 5.7 | 1800 | 1600 |
| CCCCCCCCCCNC(=O)[C@@H]1CSC(c2ccc(OC)c(OC)c2)N1 (stereo partly specified) | 6.3 | 6100 | 11900 |
| CCCCCCCCNC(=O)[C@@H]1CSC(c2cc(OC)c(OC)c(OC)c2)N1 (stereo partly specified) | 20.8 | 19600 | 17100 |
| CON(C)C(=O)[C@@H]1CSC(c2ccccc2)N1 (stereo partly specified) | > 100 | > 100000 | > 100000 |
| CCCCCCCCCCCCCCCCNC(=O)[C@@H]1CSC(c2cc(OC)c(OC)c(OC)c2)N1 (stereo partly specified) | 2.4 | 700 | 1800 |
| CCCCCCCCCCCCCCNC(=O)[C@@H]1CSC(c2ccc3c(c2)OCO3)N1 (stereo partly specified) | 4.2 | 1000 | 1600 |
| CCCCCCCCCCCCCCCCNC(=O)[C@@H]1CSC(c2ccc(N)cc2)N1 (stereo partly specified) | 7.4 | 1400 | 2300 |
| CCCCCCCCCCCCNC(=O)[C@@H]1CSC(c2cc(OC)c(OC)c(OC)c2)N1 (stereo partly specified) | 2.4 | 2400 | 2100 |
| CCCCCCCCCCCCNC(=O)[C@@H]1CSC(c2ccc(OC)c(OC)c2)N1 (stereo partly specified) | 4.5 | 1600 | 2900 |
| CCCCCCCCCCCCNC(=O)[C@@H]1CSC(c2ccc(N)cc2)N1 (stereo partly specified) | 4.1 | 1400 | 2200 |
| CCCCCCCCCCCCCCNC(=O)[C@@H]1CSC(c2ccc(OC)c(OC)c2)=N1 | > 50 | 42900 | 19100 |
| CCCCCCCCCCCCCCNC(=O)[C@@H]1CSC(c2ccc(NC(C)=O)cc2)N1 (stereo partly specified) | 3.6 | 600 | 2300 |
| CCCCCCCCCCCCCCCCCNC(=O)[C@@H]1CSC(c2ccc(NC(C)=O)cc2)N1 (stereo partly specified) | 35.8 | 2400 | 8500 |
| CCCCCCCCCCCCCCCNC(=O)[C@@H]1CSC(c2ccc(NC(C)=O)cc2)N1 (stereo partly specified) | 14.3 | 1000 | 1600 |
| CCCCCCCCCCCCCCNC(=O)[C@@H]1CSC(c2ccccc2)=N1 | > 50 | > 50000 | 42100 |
| CCCCCCCCCCCCCCCCNC(=O)[C@@H]1CSC(c2ccc(NC(C)=O)cc2)N1C (stereo partly specified) | > 100 | > 100000 | 29100 |
| CCCCCCCCC/C=C\CCCCCCCNC(=O)[C@@H]1CSC(c2ccc(NC(C)=O)cc2)N1 (stereo partly specified) | 10.6 | 1000 | 1400 |
